Measured values taken from patent US8350062B2, “Synthesis and anticancer activity of new actin-targeting small-molecule agents” (priority 2009, dated 2013).

Columns and labels:
G-actin [1] = target: T1, G-actin (Oryctolagus cuniculus, UniProt P68135); assay: Isothermal titration calorimetry, binding to monomeric actin; design: species or system rabbit
T1 construct: Actin was purified from rabbit muscle acetone powder; tissue Pel-Freez Biologicals (acetone powder); host or cells: rabbit muscle acetone powder
Procedure: Isothermal Titration Calorimetry. A solution of rabbit skeletal muscle actin (5-10 μM) was titrated with bistramide A or its analog (50-100 μM) at 25° C. in buffer containing 2 mM Tris HCl, pH 8.0, 0.2 mM CaCl2, 0.01% NaN3, 0.2 mM ATP, 0.2 mM 2-mercaptoethanol. Dissociation constants were calculated from the binding curve using Origin analytical software (OriginLab) with the binding model involving a single set of identical sites

G-actin [2] = target: T1, G-actin; assay: Interaction with actin by MALDI-TOF (covalent modification); format: biochemical, rabbit; conditions: 1:1 actin-drug complex, 30 min
Procedure: Interaction Of Bistramide-Based Compounds With Actin By MALDI-TOF. A 1:1 actin-drug complex was incubated for 30 min in 2 mM Tris-HCl, pH 8.0, 0.2 mM CaCl2, 0.01% NaN3, 0.2 mM ATP, 1 mM 2-mercaptoethanol, diluted with deionized water to 26 μM and mixed with an equal volume of a solution of 10 mg/ml sinapinic acid in 50% CH3CN— 0.1% TFA. MALDI spectra were obtained on a Voyager-DE PRO biospectrometry workstation.

F-actin in A549 cells = assay: Fluorescent visualization of F-actin in A549 cells (Alexa Fluor 488 phalloidin); format: cell-based, human; conditions: 2 h incubation
Procedure: The presence of the enone increased the severing efficiency of the analogs three-fold. […] We determined whether it was the depletion of actin filaments by analogs 2-5 which was responsible for the growth inhibition of A549 cells. Each of the compounds was incubated with A549 cells for 2 h at a concentration that exceeded the GI50 value by a factor of 5. The cells were then fixed, permeabilized and filamentous actin was visualized by fluorescence microscopy following Alexa Fluor 488 phalloidin staining. […] They induced depolymerization at 150 nM for bistramide A (1), 500 nM for analog 2 and 2 μM for analog 3. Analogs 4 and 5 induced depolymerization of actin only at concentrations as high as 100 μM. […] This observation was consistent with the enhanced cell-based activity of the compounds containing the C(1)-C(4) enone moiety.
Fluorescent Visualization Of F-Actin In Cells. A549 cells grown on coverslips were incubated with analogs 4-8 (100 μM) analog 3 (2 μM) or analog 2 (500 nM) or bistramide A (150 nM) in F-12K cell culture medium for 2 h, fixed with 3% formaldehyde in PBS at 25° C. for 5 min and permeabilized with 0.1% Triton X-100 at 25° C. for 10 min. After washing with PBS, coverslips were stained with Alexa Fluor 488 Phalloidin and visualized by fluorescence microscopy.

[3] = mouse, in vivo; cited from earlier work
A549 cells = assay: Cell viability assay (CellTiter-Glo), growth inhibition of A549 cells; format: cell-based, human; conditions: Homo sapiens, A549, 48 h, 48 h incubation
Procedure: Cell Viability Assays. All assays were performed using at least three replicate wells for each concentration tested. Original 10-25 mM DMSO stock solution of bistramide A or its analogs was diluted to 100 μM for analogs 4-8, 10 μM for analog 3, 5 μM for analog 2 and 1 μM for bistramide A (1) with F-12K cell culture media supplemented with 10% fetal bovine serum, 100 I.U./ml penicillin, 100 μg/ml streptomycin and 2 mM L-glutamine. Two-fold serial dilutions were performed and used for cell-based assays. A549 cells were grown in 96-well white plates at the density of 1,000 cells per well in 100 μl F-12K cell culture media. Cells were allowed to attach over 24 h and treated with 30 μl of the drug solution and incubated further for 48 h. After incubation, cell viability was determined using luminescence-based commercial kit (CellTiter-Glo, Promega) and luminescence measured using a Wallac Victor 3 plate reader. To measure cell growth inhibition, viability assays were performed twice: at initial time point T0 and after 48 h incubation (T48). Change in the number of viable cells was measured, and GI50 was calculated from sigmoidal plots. For analog 10, growth of A549 and PC3 cells was monitored over 96 h following addition of the drug. 100 μM was the highest concentration tested. At no point did the total DMSO conc. exceed 1%.

filamentous actin = filamentous actin (Oryctolagus cuniculus, UniProt P68135); assay: TIRF microscopy of actin filament severing and depolymerization; format: biochemical, rabbit; design: Actin was purified from rabbit muscle acetone powder; tissue Pel-Freez Biologicals (acetone powder); host or cells: rabbit muscle acetone powder
Description: To gain further insight into the mode of action of bistramide A, we next investigated the interaction of the natural product and its analogs with filamentous actin. […] Similar observations have been reported for several other actin-binding natural products. However, this effect could provide only limited mechanistic information and may primarily reflect the binding of a small molecule to the filaments in close proximity to the dye and quenching of pyrene fluorescence, which could be independent of the rates of actin depolymerization. Some proteins like myosin and Actin Depolymerizing Factor (ADF)/Cofilin are known to do so. Total internal reflection fluorescence (TIRF) microscopy has recently emerged as a powerful tool to investigate actin filament dynamics and its regulation by several actin-binding proteins, as well as latrunculin A, which is […] depolymerizing filamentous actin in vitro. Thus, we decided to employ TIRF microscopy to observe in real time the effects of bistramide-based compounds on actin polymerization in vitro. We believe this is the first instance where TIRF microscopy has been utilized to study the severing of actin filaments by a small molecule. We polymerized G-actin containing 25% of tetramethylrhodamine-functionalized and 10% of biotin-functionalized actin. The resulting actin filaments were immobilized onto the streptavidin-coated glass slides (in a flow cell). Analogs 1-8 were flown through the flow cell and imaged by time-lapse TIRF microscopy.
Total Internal Reflection Fluorescence Microscopy. Actin filament severing was studied using a custom-built total internal reflection fluorescence microscope. Images were collected with a 100×, 1.45 NA objective (Olympus) and an EMCCD camera (iXon, Andor Technologies). Glass flow cell (6 μl volume) was washed with 0.25 mg/ml neutravidin in F-buffer (50 mM KCl, 1 mM MgCl2, 1 mM EGTA, 10 mM imidiazole, 2 mM ATP, 0.2 mM 2-mercaptoethanol, 2 min) and blocked with 1 mg/ml BSA in F-buffer (2 min). Ten microliters of 200 nM Mg^2+-F-actin (10% biotinylated, 25% labeled with maleimide-6-tetramethylrhodamine) in TIRF-buffer (50 mM KCl, 1 mM MgCl2, 1 mM EGTA, 10 mM imidiazole, 2 mM ATP, 4.5 mg/ml glucose, 0.5% 2-mercaptoethanol, 4.3 mg/ml glucose oxidase, 0.7 mg/ml catalase) was added to the flowcell and incubated for 2 min. The chamber was rinsed with TIRF-buffer and imaged. Compounds were freshly diluted from their DMSO stock solutions in TIRF-buffer and were added to the chamber immediately after the start of each experiment. Images were collected at 0.2-s exposures every 3 s for 200 frames. For kinetics studies, movies of suitable length were obtained for each of the analog concentrations. Analysis was performed using ImageJ.

[4] = system: non-small cell broncho-pulmonary carcinoma xenografts; conditions: mouse, in vivo; cited from earlier work

C/C=C/C(=O)C[C@@H]1CCC(C)C(CC(=O)NC[C@H](O)[C@H](C)C(=O)NCCC[C@H]2O[C@@]3(CCC[C@@H](CC[C@H](C)/C=C(\C)C(C)O)O3)CCC2C)O1 (some centres unmarked) [Bistramide A (1), bistramide A, reference compound]
Kd (G-actin [1]): 7 nM
covalent modification of G-actin (G-actin [2]): covalently modified G-actin
concentration inducing actin depolymerization in A549 cells (F-actin in A549 cells): 150 nM
general toxicity [3]: high general toxicity
GI50 (A549 cells): 20 nM
GI50 (A549 cells; values of the text): 20.4 nM
effect on filamentous actin (filamentous actin; 750 nM): rapid filament depletion
No. of breaks per 100 μm (filamentous actin; compound at 0.75 μM): 40.4 per 100 μm
Pointed-end depolymerization rate (filamentous actin; compound at 0.75 μM, standard deviations 0.1-0.3 subunits/s): 0.49 subunits/s
Barbed-end depolymerization rate (filamentous actin; compound at 0.75 μM, standard deviations 0.4-0.6 subunits/s): 1.88 subunits/s
inhibition of tumor growth in xenograft model [4]: ineffective at reducing tumor growth
